A short description of one series: Solubility in hexane. The class given is physicochemical. As for the experimental part:
Next, 13.5 mg of 5,7,12,14-tetrakis(2-(triethylsilyl)ethyl)pentacene-6,13-dione was added to 51.6 mg of hexane at 22° C., and allowed to completely dissolve.
Next, 9.3 mg of a 1:1 mixture of 4,6,10,12-tetrakis(2-(triethylsilyl)ethyl)anthra[2,3-b : 6,7-b′]dithiophene-5,11-dione and 4,6,10,12-tetrakis(2-(triethylsilyl)ethyl)anthra[2,3-b:7,6-b′]dithiophene-5,11-dione was added to 180.1 mg of hexane at 26° C., and allowed to completely dissolve. The solubility in hexane was 5 wt %.

SMILES strings stand for the structures.

Broadly, the melting point is the temperature, or range, at which the solid turns liquid.

Compound `CC[Si](CC)(CC)CCc1c2c(c(CC[Si](CC)(CC)CC)c3ccccc13)C(=O)c1c(c(CC[Si](CC)(CC)CC)c3ccccc3c1CC[Si](CC)(CC)CC)C2=O` [5,7,12,14-tetrakis(2-(triethylsilyl)ethyl)pentacene-6,13-dione] registered a melting point of 171 to 171.5 °C. In addition, in “Solubility in hexane”, the solubility in hexane was 26 wt %.

The values are drawn from patent publication US20120012822A1, “AROMATIC COMPOUND AND METHOD FOR PRODUCING SAME” (KEIO UNIVERSITY, priority 2009, published 2012).
